The target of one experiment is IRAK4 (Homo sapiens (Human), UniProt Q9NWZ3). Nature of the experiment: IRAK4 ADP-Glo Assay. The experiment is classed as biochemical. As to conditions: MBP substrate. In outline:
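Human IRAK4 kinase reaction with MBP substrate plus ATP in Tris-HCl/MgCl2/BSA/DTT buffer, pH 7.4, run 60 min at room temperature or 30 min at 30 °C. ADP formed was measured by ADP-Glo luminescence after ATP depletion (40 min) and detection reagent (30 min).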
On the technique in general: ADP-Glo turns the ADP formed in a reaction into a luminescent signal.

The subject of a further experiment is IL23p19 in THP-1 Cells. The experiment can be described thus: LPS Induced IL23p19 in THP-1 Cells (with IFNγ Primed) Assay. The experiment is classed as cell-based. As to conditions: Homo sapiens, THP-1, 18 h, read-out: IL23 (THP, LPS) (IC50, μM). The gist of the method: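 THP-1 cells (50K/well) primed with IFNγ (50 ng/mL) about 18 h, then given compound and stimulated with LPS for 18 h at 37 °C. Secreted IL-23p19 measured by sandwich ELISA with chemiluminescent read-out, giving EC50. Cell Titer Glo used on the remaining cells for toxicity.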

The subject of a further experiment is TNF-α in human PBMCs. The experiment can be described thus: R848-induced TNF-α in human PBMCs Assay. The class given is cell-based. As to conditions: Homo sapiens, PBMC, 4 h, read-out: TNFα (PBMC, R848) (IC50, μM). The gist of the method: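 Human PBMCs at 200K/well were pretreated with compound, then R848-stimulated for 4 h at 37 °C, 5% CO2. Supernatant TNF-α quantified by chemiluminescent ELISA; EC50 from curve fitting.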

Experiment [1] concerns TNF-α in Human Primary Monocyte-Derived Dendritic Cells. The experiment can be described thus: Gardiquimod-Induced TNF-α in Human Primary Monocyte-Derived Dendritic Cells. The experiment is classed as cell-based. To be noted: Dendritic cell, IFNγ-primed monocyte-derived dendritic cells, 4 μg/ml Gardiquimod, 6 hours, TNF-α ELISA, read-out: TNFα (DC, GARD) (IC50). In outline:
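Monocytes differentiated 7 days with GM-CSF and IL-4, then primed 24 h with 50 ng/ml IFN-γ. Compound added 1 h before 6 h stimulation with 4 μg/ml Gardiquimod, 0.5% DMSO final. Supernatant TNF-α measured by chemiluminescent ELISA; EC50 from curve fitting.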
In general terms: ELISA stands for enzyme-linked immunosorbent assay.

19 compounds from patent US20230391748A1, “BICYCLIC INHIBITORS OF IRAK” (priority 2022, published 2023) can be followed below.

pIC50: −log10 of the molar value.

Chain of IRAK4 (Q9NWZ3 whole entry): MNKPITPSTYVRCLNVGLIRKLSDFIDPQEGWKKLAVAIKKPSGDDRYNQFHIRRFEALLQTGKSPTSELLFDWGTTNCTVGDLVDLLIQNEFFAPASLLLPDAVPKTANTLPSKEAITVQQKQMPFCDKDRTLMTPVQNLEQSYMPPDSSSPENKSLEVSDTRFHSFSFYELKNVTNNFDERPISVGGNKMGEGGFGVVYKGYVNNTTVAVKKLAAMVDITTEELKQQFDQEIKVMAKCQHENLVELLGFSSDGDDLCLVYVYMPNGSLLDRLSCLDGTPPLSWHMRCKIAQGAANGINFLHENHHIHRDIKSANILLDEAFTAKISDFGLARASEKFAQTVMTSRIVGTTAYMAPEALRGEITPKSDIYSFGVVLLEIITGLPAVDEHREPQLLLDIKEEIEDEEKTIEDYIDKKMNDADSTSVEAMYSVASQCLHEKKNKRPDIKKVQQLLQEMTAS

What is called pIC50 is the negative decadic logarithm of the IC50, by convention in mol/L. What is called IC50 is the concentration that inhibits the measured activity by half. On to `CC(C)Oc1cc2c(O[C@@H]3CCCN(C(=O)CC#N)C3)ncc(C#CC3CCN(C)CC3)c2cc1C(N)=O` [Compound I-97, (R)-1-((1-(2-cyanoacetyl)piperidin-3-yl)oxy)-7-isopropoxy-4-((1-methylpiperidin-4-yl)ethynyl)isoquinoline-6-carboxamide], for which the results for the pIC50 (at IRAK4; in experiment [1]) were 7.81 and 6.60, respectively. The IC50 in the experiment on IL23p19 in THP-1 Cells is 1.98 µM; in the experiment on TNF-α in human PBMCs it was 0.752 µM.

With `CCO[C@H]1CC[C@H](C#Cc2cnc(O[C@@H]3CCCN(C(=O)CC#N)C3)c3cc(OC(C)C)c(C(N)=O)cc23)CC1` [Compound I-98, 1-(((R)-1-(2-cyanoacetyl)piperidin-3-yl)oxy)-4-(((1r,4R)-4-ethoxycyclohexyl)ethynyl)-7-isopropoxyisoquinoline-6-carboxamide], the results for the negative logarithm of the IC50 (pIC50) (against IRAK4; in experiment [1]) were 7.59 and 6.87, respectively. Further, the half-inhibitory concentration (IC50) turned out to be 0.484 µM in the experiment on IL23p19 in THP-1 Cells and 0.22 µM in the experiment with TNF-α in human PBMCs.

Take `CCO[C@H]1CC[C@@H](C#Cc2cnc(O[C@@H]3CCCN(C(=O)CC#N)C3)c3cc(OC(C)C)c(C(N)=O)cc23)CC1` [Compound I-99, 1-(((R)-1-(2-cyanoacetyl)piperidin-3-yl)oxy)-4-((cis-4-ethoxycyclohexyl)ethynyl)-7-isopropoxyisoquinoline-6-carboxamide]: the pIC50 against IRAK4 is 7.64; in experiment [1], 6.44. Besides, the IC50 in the experiment with IL23p19 in THP-1 Cells amounted to 0.483 µM; with TNF-α in human PBMCs, 0.555 µM.

With `CC(C)Oc1cc2c(O[C@@H]3CCCN(C(=O)CC#N)C3)ncc(C#C[C@H]3CC[C@](C)(O)CC3)c2cc1C(N)=O` [Compound I-100, 1-(((R)-1-(2-cyanoacetyl)piperidin-3-yl)oxy)-4-(((1r,4R)-4-hydroxy-4-methylcyclohexyl)ethynyl)-7-isopropoxyisoquinoline-6-carboxamide], the pIC50 on IRAK4 was 7.46; in experiment [1] it was 5.85. In addition, the IC50 in the experiment on IL23p19 in THP-1 Cells stood at 0.96 µM; in the experiment with TNF-α in human PBMCs, 3.3 µM.

With `CC(C)Oc1cc2c(O[C@@H]3CCCN(C(=O)CC#N)C3)ncc(C#C[C@H]3CC[C@@](C)(O)CC3)c2cc1C(N)=O` [Compound I-101, 1-(((R)-1-(2-cyanoacetyl)piperidin-3-yl)oxy)-4-(((1s,4S)-4-hydroxy-4-methylcyclohexyl)ethynyl)-7-isopropoxyisoquinoline-6-carboxamide], the pIC50 against IRAK4 is 7.86; in experiment [1], 6.12. The IC50 amounted to 0.27 µM in the experiment on IL23p19 in THP-1 Cells and 3.33 µM with TNF-α in human PBMCs.

Regarding `CC(C)Oc1cc2c(O[C@@H]3CCCN(C(=O)CC#N)C3)ncc(C#CC3CN(C(=O)OC(C)(C)C)C3)c2cc1C(N)=O` [Compound I-102, tert-butyl (R)-3-((6-carbamoyl-1-((1-(2-cyanoacetyl)piperidin-3-yl)oxy)-7-isopropoxyisoquinolin-4-yl)ethynyl)azetidine-1-carboxylate], the negative logarithm of the IC50 (pIC50) at IRAK4 was 7.45; in experiment [1], 7.20. For the same compound, the values for the half-maximal inhibitory concentration (IC50) with IL23p19 in THP-1 Cells and in the experiment with TNF-α in human PBMCs were 0.16 µM and 0.19 µM, respectively.

In the case of `CC(C)Oc1cc2c(O[C@@H]3CCCN(C(=O)CC#N)C3)ncc(C#CC3CNC3)c2cc1C(N)=O` [Compound I-103, (R)-4-(azetidin-3-ylethynyl)-1-((1-(2-cyanoacetyl)piperidin-3-yl)oxy)-7-isopropoxyisoquinoline-6-carboxamide], the pIC50 at IRAK4 was 8.28; in experiment [1], 6.08. Besides, the values for the IC50 with IL23p19 in THP-1 Cells and in the experiment on TNF-α in human PBMCs were 9.35 µM and 0.441 µM, respectively.

For the compound `CC(C)Oc1cc2c(O[C@@H]3CCCN(C(=O)CC#N)C3)ncc(C#CC3CN(C)C3)c2cc1C(N)=O` [Compound I-104, (R)-1-((1-(2-cyanoacetyl)piperidin-3-yl)oxy)-7-isopropoxy-4-((1-methylazetidin-3-yl)ethynyl)isoquinoline-6-carboxamide], the values for the pIC50 (at IRAK4; in experiment [1]) were 8.15 and 6.80, respectively. Also, the IC50 in the experiment on IL23p19 in THP-1 Cells is 1.76 µM; with TNF-α in human PBMCs it was 0.237 µM.

As for `COC1(OC)CC(C#Cc2cnc(O[C@@H]3CCCN(C(=O)CC#N)C3)c3cc(OC(C)C)c(C(N)=O)cc23)C1` [Compound I-105, (R)-1-((1-(2-cyanoacetyl)piperidin-3-yl)oxy)-4-((3,3-dimethoxycyclobutyl)ethynyl)-7-isopropoxyisoquinoline-6-carboxamide], the pIC50 against IRAK4 was 8.00; in experiment [1] it was 6.54. In addition, the IC50 was 0.603 µM in the experiment with IL23p19 in THP-1 Cells and 0.275 µM with TNF-α in human PBMCs.

As to `CC(C)Oc1cc2c(O[C@@H]3CCCN(C(=O)CC#N)C3)ncc(C#C[C@H]3C[C@@H](N(C)C)C3)c2cc1C(N)=O` [Compound I-106, 1-(((R)-1-(2-cyanoacetyl)piperidin-3-yl)oxy)-4-((cis-3-(dimethylamino)cyclobutyl)ethynyl)-7-isopropoxyisoquinoline-6-carboxamide], the values for the pIC50 (on IRAK4; in experiment [1]) were 8.49 and 7.27, respectively. For the same compound, the IC50 in the experiment with IL23p19 in THP-1 Cells is 0.436 µM; with TNF-α in human PBMCs, 0.363 µM.

Turning to `CC(C)Oc1cc2c(O[C@@H]3CCCNC3)ncc(-c3cnn(C4CC4)c3)c2cc1C(N)=O` [Compound I-108, (R)-4-(1-cyclopropyl-1H-pyrazol-4-yl)-7-isopropoxy-1-(piperidin-3-yloxy)isoquinoline-6-carboxamide], the pIC50 is 6.85 against IRAK4 and 5.86 in experiment [1]. Besides, the figures for the IC50 in the experiment on IL23p19 in THP-1 Cells and with TNF-α in human PBMCs were 10 µM and 5.5 µM, respectively.

On to `CC(C)Oc1cc2c(O[C@@H]3CCCNC3)ncc(-c3cnn(C4CCC4)c3)c2cc1C(N)=O` [Compound I-109, (R)-4-(1-cyclobutyl-1H-pyrazol-4-yl)-7-isopropoxy-1-(piperidin-3-yloxy)isoquinoline-6-carboxamide], for which the pIC50 on IRAK4 is 6.77; in experiment [1], 5.84. Besides, the 50% inhibitory concentration (IC50) in the experiment on IL23p19 in THP-1 Cells stood at 34.9 µM; with TNF-α in human PBMCs it was 2.55 µM.

Take `CC(C)Oc1cc2c(O[C@@H]3CCCNC3)ncc(-c3cnn(C4CCCC4)c3)c2cc1C(N)=O` [Compound I-110, (R)-4-(1-cyclopentyl-1H-pyrazol-4-yl)-7-isopropoxy-1-(piperidin-3-yloxy)isoquinoline-6-carboxamide]: the pIC50 is 6.91 against IRAK4 and 5.75 in experiment [1]. Besides, the figures for the IC50 in the experiment with IL23p19 in THP-1 Cells and in the experiment with TNF-α in human PBMCs were 24.7 µM and 2.44 µM, respectively.

Turning to `CC(C)Oc1cc2c(O[C@@H]3CCCNC3)ncc(-c3cnn(C4CCOCC4)c3)c2cc1C(N)=O` [Compound I-111, (R)-7-isopropoxy-1-(piperidin-3-yloxy)-4-(1-(tetrahydro-2H-pyran-4-yl)-1H-pyrazol-4-yl)isoquinoline-6-carboxamide], the pIC50 is 5.84 against IRAK4 and 5.64 in experiment [1]. The IC50 in the experiment with IL23p19 in THP-1 Cells was found to be 15.5 µM; with TNF-α in human PBMCs, 3.46 µM.

As to `CC(C)Oc1cc2c(O[C@@H]3CCCNC3)ncc(-c3cnn(CC4CCOCC4)c3)c2cc1C(N)=O` [Compound I-112, (R)-7-isopropoxy-1-(piperidin-3-yloxy)-4-(1-((tetrahydro-2H-pyran-4-yl)methyl)-1H-pyrazol-4-yl)isoquinoline-6-carboxamide], the pIC50 against IRAK4 was 6.55; in experiment [1] it was 5.04. Further, the IC50 with IL23p19 in THP-1 Cells came out at 13.6 µM; in the experiment on TNF-α in human PBMCs, 3.95 µM.

In the case of `CC(C)Oc1cc2c(O[C@@H]3CCCNC3)ncc(-c3cnn(CCC4CCOCC4)c3)c2cc1C(N)=O` [Compound I-113, (R)-7-isopropoxy-1-(piperidin-3-yloxy)-4-(1-(2-(tetrahydro-2H-pyran-4-yl)ethyl)-1H-pyrazol-4-yl)isoquinoline-6-carboxamide], the pIC50 was 6.44 at IRAK4 and 6.07 in experiment [1]. The IC50 worked out at 8.82 µM in the experiment with IL23p19 in THP-1 Cells and 0.677 µM in the experiment with TNF-α in human PBMCs.

`CC(C)Oc1cc2c(O[C@@H]3CCCN(C(=O)CC#N)C3)ncc(-c3cnn(C4CC4)c3)c2cc1C(N)=O` [Compound I-114, (R)-1-((1-(2-cyanoacetyl)piperidin-3-yl)oxy)-4-(1-cyclopropyl-1H-pyrazol-4-yl)-7-isopropoxyisoquinoline-6-carboxamide]: the pIC50 against IRAK4 was 7.91; in experiment [1], 6.18. Further, the IC50 with IL23p19 in THP-1 Cells came to 1.42 µM; in the experiment with TNF-α in human PBMCs it was 0.549 µM.

For `CC(C)Oc1cc2c(O[C@@H]3CCCN(C(=O)CC#N)C3)ncc(-c3cnn(C4CCC4)c3)c2cc1C(N)=O` [Compound I-115, (R)-1-((1-(2-cyanoacetyl)piperidin-3-yl)oxy)-4-(1-cyclobutyl-1H-pyrazol-4-yl)-7-isopropoxyisoquinoline-6-carboxamide], the pIC50 is 7.88 on IRAK4 and 6.35 in experiment [1]. Also, the IC50 with IL23p19 in THP-1 Cells worked out at 0.911 µM; in the experiment with TNF-α in human PBMCs, 0.443 µM.

Turning to `CC(C)Oc1cc2c(O[C@@H]3CCCN(C(=O)CC#N)C3)ncc(-c3cnn(C4CCCC4)c3)c2cc1C(N)=O` [Compound I-116, (R)-1-((1-(2-cyanoacetyl)piperidin-3-yl)oxy)-4-(1-cyclopentyl-1H-pyrazol-4-yl)-7-isopropoxyisoquinoline-6-carboxamide], the pIC50 against IRAK4 is 8.11; in experiment [1] it was 6.66. The IC50 stood at 1.37 µM in the experiment with IL23p19 in THP-1 Cells and 0.271 µM with TNF-α in human PBMCs.
